Patent US9321760B2 (Merck Patent GmbH, priority 2011, dated 2016)

Target: P70S6K (T412E mutant) (Homo sapiens (Human), UniProt P23443, T412E)
Experiment: P70S6K enzyme assay
Format: biochemical
Conditions: 3 nM P70S6K T412E mutant, 24 μM ATP, 1 μM FITC-AHA-AKRRRLSSLRA-OH substrate peptide, 90 min at 25° C.
Summary of the method: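 P70S6K T412E mutant (3 nM) with 24 μM ATP and 1 μM FITC-labelled S6-derived peptide in Hepes pH 7.5, MgCl2, DTT, Brij buffer; 90 min at 25° C, stopped with EDTA. Phosphorylated product and substrate peptides separated by microfluidic mobility shift; IC50 values derived.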

Chain of P70S6K (T412E mutant) (P23443 whole entry T412E): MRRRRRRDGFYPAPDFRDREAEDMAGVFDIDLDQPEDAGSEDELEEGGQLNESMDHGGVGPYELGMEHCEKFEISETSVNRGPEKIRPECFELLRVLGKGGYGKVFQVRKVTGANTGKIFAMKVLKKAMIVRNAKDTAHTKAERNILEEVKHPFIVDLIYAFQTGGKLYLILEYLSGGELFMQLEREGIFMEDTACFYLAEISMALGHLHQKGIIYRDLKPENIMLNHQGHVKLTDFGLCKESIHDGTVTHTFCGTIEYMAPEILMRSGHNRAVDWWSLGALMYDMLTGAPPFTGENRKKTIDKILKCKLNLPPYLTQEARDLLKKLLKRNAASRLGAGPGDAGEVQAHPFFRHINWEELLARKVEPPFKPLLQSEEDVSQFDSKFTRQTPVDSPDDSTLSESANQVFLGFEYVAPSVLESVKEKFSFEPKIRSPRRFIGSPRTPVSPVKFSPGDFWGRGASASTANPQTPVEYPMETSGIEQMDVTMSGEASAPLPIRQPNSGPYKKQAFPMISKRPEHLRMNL

**Q.** Nc1ncnc(N2CCC(C(c3ccc(F)cc3)N3CCCC3)CC2)c1-c1ccc(F)cc1 (stereo not shown) [Example 148, 5-(4-fluoropheny)-6-(4-((4-fluorophenyl)(pyrrolidin-1-yl)methyl)piperidin-1-yl)pyrimidin-4-amine] was tested. Which IC50 did it give?
**A.** 250 nM

**Q.** How did the IC50 turn out when CN(C)CC(c1ccc(C(F)(F)F)cc1)N1CCN(c2ncnc(N)c2-c2ccc(C(=O)O)cc2)CC1 (stereo not shown) [Example 26, 4-(4-amino-6-(4-(2-(dimethylamino)-1-(4-(trifluoromethyl)phenyl)ethyl)piperazin-1-yl)pyrimidin-5-yl)benzoic acid] was run?
**A.** 45 nM

**Q.** How did the IC50 turn out when Nc1ncnc(N2CCN(C(CN3CCC3)c3ccc4c(c3)CCCC4)CC2)c1-c1ccc(N2CCNCC2)nc1 (stereo not shown) [Example 115, 6-{4-[2-Azetidin-1-yl-1-(5,6,7,8-tetrahydro-naphthalen-2-yl)-ethyl]-piperazin-1-yl}-5-(6-piperazin-1-yl-pyridin-3-yl)-pyrimidin-4-ylamine] was run?
**A.** > 100000 nM

**Q.** Which IC50 does the source give for Nc1ncnc(N2CCN(C(CN3CCCC3)c3ccc(F)cc3)CC2)c1Cl (stereo not shown) [Example 81, 5-Chloro-6{4-[1-(4-fluorophenyl)-2-pyrrolidin-1-yl-ethyl]-piperazin-1-yl}-pyrimidin-4-ylamine] here?
**A.** > 1000 nM

**Q.** Which IC50 does the source give for COc1ccc(C(CN)N2CCN(c3ncnc(N)c3-c3ccc(F)cc3)CC2)cn1 (stereo not shown) [Example 183, 6-(4-(2-amino-1-(6-methoxypyridin-3-yl)ethyl)piperazin-1-yl)-5-(4-fluorophenyl)pyrimidin-4-amine] here?
**A.** 3.4 nM

**Q.** With NC[C@@H](c1ccc(C(F)(F)F)cc1)C1CCN(c2ncnc(N)c2-c2ccc(F)cc2)CC1 [Example 54, 6-{4-[(R)-2-Amino-1-(4-trifluoromethyl-phenyl)-ethyl]-piperidin-1-yl}-5-(4-fluoro-phenyl)-pyrimidin-4-ylamine] as the compound, how does the IC50 read?
**A.** 4.5 nM

**Q.** For Nc1ncnc(N2CCN(C(CN3CCC3)c3cccc(F)c3)CC2)c1-c1ccc(F)cc1 (stereo not shown) [Example 90, 6-{4-[2-Azetidin-1-yl-1-(3-fluoro-phenyl)-ethyl]-piperazin-1-yl}-5-(4-fluoro-phenyl)-pyrimidin-4-ylamine], which IC50 is on record?
**A.** 600 nM

**Q.** Which IC50 does the source give for Nc1ncnc(N2CCC(Cc3ccc(C(F)(F)F)cc3)CC2)c1-c1ccc(F)cc1 [Example 48, 5-(4-Fluorophenyl)-6{4-(4-trifluoromethylbenzyl)-piperidin-1-yl}pyrimidin-4-amine] here?
**A.** 66 nM

**Q.** Which IC50 does the source give for Nc1ncnc(N2CCN(C(CN3CCCCC3)c3ccc(C(F)(F)F)cc3)CC2)c1-c1ccc(F)cc1 (stereo not shown) [Example 12, 5-(4-Fluoro-phenyl)-6-{4-[2-piperidin-1-yl-1-(4-trifluoromethyl-phenyl)-ethyl]-piperazin-1-yl}-pyrimidin-4-ylamine] here?
**A.** 18 nM

**Q.** With COc1ccc(C(CN2CCC2)N2CCN(c3ncnc(N)c3-c3cn[nH]c3)CC2)cc1F (stereo not shown) [Example 95, 6-{4-[2-Azetidin-1-yl-1-(3-fluoro-4-methoxy-phenyl)-ethyl]-piperazin-1-yl}-5-(1H-pyrazol-4-yl)-pyrimidin-4-ylamine] as the compound, how does the IC50 read?
**A.** 3500 nM

**Q.** Which IC50 does the source give for Nc1ncnc(N2CCC(C(c3ccc(F)cc3)N3CCC(F)(F)C3)CC2)c1-c1ccc(F)cc1 (stereo not shown) [Example 149, 5-(4-fluoropheny)-6-(4-((4-fluorophenyl)(3-difluoropyrrolidin-1-yl)methyl)piperidin-1-yl)pyrimidin-4-amine] here?
**A.** 460 nM

**Q.** For NCC(c1ccc(Cl)c(F)c1)N1CCN(c2ncnc(N)c2-c2ccc(F)cc2)CC1 (stereo not shown) [Example 165, 6-{4-[2-Amino-1-(4-chloro-3-fluoro-phenyl)-ethyl]-piperazin-1-yl}-5-(4-fluoro-phenyl)-pyrimidin-4-ylamine], which IC50 is on record?
**A.** 0.9 nM

**Q.** How did the IC50 turn out when N#CC(c1ccc(Cl)c(F)c1)N1CCN(c2ncnc(N)c2-c2ccc(F)cc2)CC1 (stereo not shown) [Example 164, {4-[6-Amino-5-(4-fluoro-phenyl)-pyrimidin-4-yl]-piperazin-1-yl}-(4-chloro-3-fluoro-phenyl)-acetonitrile] was run?
**A.** 44 nM

**Q.** Which IC50 does the source give for Nc1ncnc(N2CCN(C(CN3CCCCC3)c3cccc(C(F)(F)F)c3)CC2)c1-c1ccc(F)cc1 (stereo not shown) [Example 65, 5-(4-Fluorophenyl)-6{4-[1-(3-trifluoro-phenyl)-2-piperidin-1-yl-ethyl]-piperazin-1-yl}-pyrimidin-4-ylamine] here?
**A.** 120 nM

**Q.** Which IC50 does the source give for NCC(c1ccc(F)c(Cl)c1)N1CCN(c2ncnc(N)c2-c2ccc(F)cc2)CC1 (stereo not shown) [Example 161, 6-{4-[2-Amino-1-(3-chloro-4-fluoro-phenyl)-ethyl]-piperazin-1-yl}-5-(4-fluoro-phenyl)-pyrimidin-4-ylamine] here?
**A.** 4 nM

**Q.** NC[C@H](c1ccc(C(F)(F)F)cc1)N1CCN(c2ncnc(N)c2-c2cn[nH]c2)CC1 [Example 8, (S)-6-(4-(2-amino-1-(4-(trifluoromethyl)phenyl)ethyl)piperazin-1-yl)-5-(1H-pyrazol-4-yl)pyrimidin-4-amine] was tested. Which IC50 did it give?
**A.** 3.4 nM

**Q.** Which IC50 does the source give for COc1ccc([C@H](CN2CCC2)N2CCN(c3ncnc(N)c3-c3ccc(F)cc3)CC2)cc1F [Example 104, 6-{4-[(R)-2-Azetidin-1-yl-1-(3-fluoro-4-methoxy-phenyl)-ethyl]-piperazin-1-yl}-5-(4-fluoro-phenyl)-pyrimidin-4-ylamine] here?
**A.** 920 nM

**Q.** How did the IC50 turn out when Nc1ncnc(N2CCC(C(OCCN3CCCC3)c3ccc(F)cc3)CC2)c1-c1ccc(F)cc1 (stereo not shown) [Example 146, 5-(4-fluoropheny)6-(4-((4-fluorophenyl)(2-(pyrrolidin-1-yl)ethoxy)methyl)-piperidin-1-yl)pyrimidin-4-amine] was run?
**A.** 11 nM

**Q.** How did the IC50 turn out when COC(=O)c1ccc(C(CN2CCC2)N2CCN(c3ncnc(N)c3-c3ccc(F)cc3)CC2)cc1 (stereo not shown) [Example 96, 4-(1-{4-[6-Amino-5-(4-fluoro-phenyl)-pyrimidin-4-yl]-piperazin-1-yl}-2-azetidin-1-yl-ethyl)-benzoic acid methyl ester] was run?
**A.** 140 nM

**Q.** For COC(=O)c1ccc([C@@H](CN2CCC2)N2CCN(c3ncnc(N)c3-c3ccc(F)cc3)CC2)cc1 [Example 110, 4-((S)-1-{4-[6-Amino-5-(4-fluoro-phenyl)-pyrimidin-4-yl]-piperazin-1-yl}-2-azetidin-1-yl-ethyl)-benzoic acid methyl ester], which IC50 is on record?
**A.** 450 nM

**Q.** N#CC(c1cccc(C(F)(F)F)c1)N1CCN(c2ncnc(N)c2-c2ccc(F)cc2)CC1 (stereo not shown) [Example 152, {4-[6-Amino-5-(4-fluoro-phenyl)-pyrimidin-4-yl]-piperazin-1-yl}-(3-trifluoromethyl-phenyl)-acetonitrile] was tested. Which IC50 did it give?
**A.** > 1000 nM

**Q.** With N#Cc1c(N)ncnc1N1CCC(N)(C(=O)N[C@@H](CCO)c2ccc(C(F)(F)F)cc2)CC1 [Example 230, 4-Amino-1-(6-amino-5-cyano-pyrimidin-4-yl)-piperidine-4-carboxylic acid [(S)-3-hydroxy-1-(4-trifluoromethyl-phenyl)-propyl]-amide] as the compound, how does the IC50 read?
**A.** 18000 nM

**Q.** For COC(=O)c1ccc(C(CN2CCC2)N2CCN(c3ncnc(N)c3-c3cn[nH]c3)CC2)cc1 (single isomer, unassigned) [Example 86, 4-(1-{4-[6-Amino-5-(1H-pyrazol-4-yl)-pyrimidin-4-yl]-piperazin-1-yl}-2-azetidin-1-yl-ethyl)-benzoic acid methyl ester], which IC50 is on record?
**A.** 6400 nM

**Q.** Which IC50 does the source give for Cn1cc(-c2c(N)ncnc2N2CCN([C@@H](CN)c3ccc(C(F)(F)F)cc3)CC2)cn1 [Example 42, 6-{4-[(R)-2-Amino-1-(4-trifluoromethyl-phenyl)-ethyl]-piperazin-1-yl}-5-(1-methyl-1H-pyrazol-4-yl)-pyrimidin-4-ylamine] here?
**A.** 6 nM

**Q.** For NC[C@@H](c1ccc(C(F)(F)F)cc1)C1CCN(c2ncnc(N)c2-c2cn[nH]c2)CC1 (single isomer, unassigned) [Example 57], which IC50 is on record?
**A.** 4.7 nM

**Q.** Nc1ncnc(N2CCN(C(CN3CCCCC3)c3ccc(F)cc3)CC2)c1-c1ccc(F)cc1 (stereo not shown) [Example 67, 5-(4-Fluorophenyl)-6{4-[1-(4-fluoro-phenyl)-2-piperidin-1-yl-ethyl]-piperazin-1-yl}-pyrimidin-4-ylamine] was tested. Which IC50 did it give?
**A.** 24 nM

**Q.** How did the IC50 turn out when Nc1ncnc(N2CCC(N)(C(=O)N[C@@H](CCO)c3ccncc3)CC2)c1Cl [Example 239, 4-Amino-1-(6-amino-5-chloro-pyrimidin-4-yl)-piperidine-4-carboxylic acid ((S)-3-hydroxy-1-pyridin-4-yl-propyl)-amide] was run?
**A.** 7200 nM

**Q.** Nc1cc(N2CCN(C(CN3CCCCC3)c3ccc(F)cc3)CC2)ncn1 (stereo not shown) [Example 79, 6-{4-[1-(4-fluoro-phenyl)-2-piperidin-1-yl-ethyl]-piperazin-1-yl}-pyrimidin-4-ylamine] was tested. Which IC50 did it give?
**A.** > 1000 nM

**Q.** How did the IC50 turn out when Nc1ncnc(N2CCC(N)(CNC(=O)c3ccc(F)cc3F)CC2)c1Br [Example 207, N-[4-Amino-1-(6-amino-5-bromo-pyrimidin-4-yl)-piperidin-4-ylmethyl]-2,4-difluoro-benzamide] was run?
**A.** 150 nM

**Q.** Nc1ncnc(N2CCN(C(CN3CCC3)c3ccc(C(F)(F)F)cc3)CC2)c1-c1ccc(F)cc1 (stereo not shown) [Example 27, 6-(4-(2-(azetidin-1-yl)-1-(4-(trifluoromethyl)phenyl)ethyl)piperazin-1-yl)-5-(4-fluorophenyl)pyrimidin-4-amine] was tested. Which IC50 did it give?
**A.** 4.2 nM

**Q.** How did the IC50 turn out when Cn1cc(-c2c(N)ncnc2N2CCN(C(CN)c3ccc(C(F)(F)F)cc3)CC2)cn1 (stereo not shown) [Example 40, 6-{4-[2-Amino-1-(4-trifluoromethyl-phenyl)-ethyl]-piperazin-1-yl}-5-(1-methyl-1H-pyrazol-4-yl)-pyrimidin-4-ylamine] was run?
**A.** 11 nM

**Q.** For Nc1ncnc(N2CCN([C@H](CN3CCC3)c3ccc4c(c3)OCCO4)CC2)c1-c1cn[nH]c1 [Example 108, 6-{4-[(S)-2-Azetidin-1-yl-1-(2,3-dihydro-benzo[1,4]dioxin-6-yl)-ethyl]-piperazin-1-yl}-5-(1H-pyrazol-4-yl)-pyrimidin-4-ylamine], which IC50 is on record?
**A.** 3700 nM

**Q.** Which IC50 does the source give for NCC(c1ccc(C(F)(F)F)cc1)N1CCN(c2ncnc(N)c2-c2cnoc2)CC1 (stereo not shown) [Example 38, 6-(4-(2-amino-1-(4-(trifluoromethyl)phenyl)ethyl)piperazin-1-yl)-5-(isoxazol-4-yl)pyrimidin-4-amine] here?
**A.** 100 nM

**Q.** With NCC(c1ccc(OC(F)(F)F)cc1)N1CCN(c2ncnc(N)c2-c2cn[nH]c2)CC1 (stereo not shown) [Example 186, 6-(4-(2-amino-1-(4-(trifluoromethoxy)phenyl)ethyl)piperazin-1-yl)-5-(1H-pyrazol-4-yl)pyrimidin-4-amine] as the compound, how does the IC50 read?
**A.** 1.4 nM
